The test system of data set [1] is AR. It counts as cell-based. Particulars: FIG. 24. The protocol:
(§1) The compounds were subjected to tests using an artificial AR response reporter system in a hormone refractory prostate cancer cell line. […] After two days of incubation, reporter activities were assayed.

A short description of another data set: LogP. It counts as physicochemical.
Data set [2] has as its target T1, AR (Homo sapiens, UniProt P10275).
T1 sequence (P10275 1-920): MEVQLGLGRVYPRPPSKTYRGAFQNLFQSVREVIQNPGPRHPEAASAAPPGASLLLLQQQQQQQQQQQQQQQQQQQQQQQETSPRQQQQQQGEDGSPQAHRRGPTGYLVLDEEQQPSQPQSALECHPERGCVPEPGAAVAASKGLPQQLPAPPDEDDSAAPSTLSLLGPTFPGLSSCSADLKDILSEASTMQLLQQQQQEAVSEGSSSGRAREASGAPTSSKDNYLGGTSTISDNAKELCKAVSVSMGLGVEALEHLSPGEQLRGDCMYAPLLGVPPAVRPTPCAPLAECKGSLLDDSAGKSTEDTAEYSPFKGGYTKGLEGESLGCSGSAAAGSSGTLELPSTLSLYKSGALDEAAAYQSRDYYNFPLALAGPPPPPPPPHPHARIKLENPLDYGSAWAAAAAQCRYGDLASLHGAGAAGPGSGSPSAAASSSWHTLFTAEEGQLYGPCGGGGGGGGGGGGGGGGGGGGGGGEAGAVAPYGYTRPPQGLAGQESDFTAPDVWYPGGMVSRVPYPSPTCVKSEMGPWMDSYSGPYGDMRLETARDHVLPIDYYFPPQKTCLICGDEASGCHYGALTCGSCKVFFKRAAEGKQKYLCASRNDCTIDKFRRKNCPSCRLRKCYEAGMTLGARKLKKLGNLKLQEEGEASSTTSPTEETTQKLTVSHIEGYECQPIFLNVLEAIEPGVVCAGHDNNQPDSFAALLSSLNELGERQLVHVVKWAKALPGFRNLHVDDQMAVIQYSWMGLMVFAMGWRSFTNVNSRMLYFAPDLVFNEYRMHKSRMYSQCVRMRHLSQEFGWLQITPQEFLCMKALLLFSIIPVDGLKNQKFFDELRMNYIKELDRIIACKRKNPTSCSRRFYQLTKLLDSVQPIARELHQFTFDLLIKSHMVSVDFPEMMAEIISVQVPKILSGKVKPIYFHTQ
It counts as cell-based. Details: Fold induction, AR response reporter. The procedure:
It is well established that PSA levels are indicators of AR activities in prostate cancer. […] The LNCaP-AR cells are a line of lymph node carcinoma of prostate cells transduced with a plasmid that makes express androgen receptors. […] After four days incubation, secreted PSA levels were assayed using PSA ELISA kits (American Qualex, San Clemente, Calif.)

The nature of data set [3]: Pharmacokinetics, drug concentration in mouse serum/plasma by HPLC. Particulars: in vivo.
Method: Mice were divided into groups of three for each time points. Two mice were not treated with drug and two other mice were treated with vehicle solution. Each group was treated with 10 mg per kilogram of body weight.
The drug was dissolved in a mixture 1:5:14 of DMSO:PEG400: H20. (Vehicle solution) and was administered into mice through the tail vein. The animals are warmed under a heat lamp for approximately 20 minutes prior to treatment to dilate their tail vein. […] After drug administration, the animals were euthanized via CO2 inhalation at different timepoints: 5 nm, 30 nm, 2 h, 6 h, 16 h. Animals were immediately bleed after exposure to CO2 via cardiac puncture (1 ml BD syringe+27 G ⅝ needle).
The samples for HPLC analysis were prepared according to the following procedure:
Blood cells were separated from serum by centrifugation.
To 400 μl of serum were added 80 μl of a 10 μM solution of an internal standard and 520 μl of acetonitrile. Precipitation occurred.
The mixture was vortexed for 3 minutes and then placed under ultrasound for 30 minutes.
The solid particles were filtered off or were separated by centrifugation.
The filtrate was dried under an argon flow to dryness.
The nature of data set [4]: Ranking of compounds in tiers for utility in treating prostate cancer.
From the text: The placement of compounds into tiers was based on available data coupled with analytical judgment. Data considered included in vitro assays (AR response reporter system in LNCaP cell line, PSA level measurement, MTS mitochondrial assay) and in vivo experiments (tumor size measured directly or by emission induced by luciferase reporter gene, pharmacokinetic assays based on blood plasma levels). Not every compound was subjected to each assay. Not all data that was generated is shown. Judgment was applied in ranking compounds relative to each other for their utility in treating prostate cancer, in particular when ranking two compounds for which the same experiments were not performed.
A further data set has as its system LIAR cell line. The data set is described as follows: Luciferase activity of the LIAR cell line (FIG. 25). It counts as cell-based. Particulars: 125 nmol to 1000 nmol. The text has this:
FIG. 25 is a graph of luciferase activity of the LIAR cell line dosed with various compounds administered at concentrations ranging from 125 nmol to 1000 nmol.
The inventors have determined that what might appear to be a small change in the structure of hydantoin compounds may result in a large change in that compound's performance in treating prostate cancer.

The target of data set [5] is T1, AR. In kind it is cell-based. Also noted: Fold induction, AR response reporter. Particulars: FIG. 3. The procedure: as §1
Another data set concerns the target T2, androgen receptor (Homo sapiens, UniProt P10275, T878A).
T2 sequence (P10275 1-920 T878A): T1 sequence (P10275 1-920) with T878A
Particulars: 10 uM (R1881 1 nM), LNCaP.

Molecules are shown by their SMILES. Substitutions are numbered along the chain they refer to.

Take `CNC(=O)CCCc1ccc(N2C(=S)N(c3ccc(C#N)c(C(F)(F)F)c3)C(=O)C23CCC3)cc1` [NC48, 4-{4-[7-(4-Cyano-3-trifluoromethylphenyl)-8-oxo-6-thioxo-5,7-diaza-spiro[3.4]oct-5-yl]-phenyl}-N-methyl-butyramide]: in the data set with AR [1], the “IC50 (comparison)” value is “much lower than the IC50 for bicalutamide”. In addition, in “LogP”, the logP stood at 3.44. Besides, the “rank by relative PSA level, most active to least active” value at AR [2] (500 nM) was “NC50>NC48>NC7>NC43>NC44>NC49>NC50>NC45>bicalutamide”. In addition, the “decrease in PSA level of LNCaP-AR cells (comparison)” value on AR [2] (1000 nM) was “greater decrease in PSA level of LNCaP-AR cells than NC43, NC44, and NC50”. The PSA levels result at AR [2] (LN-AR cells, FIG. 23) is “PSA levels decreased”. The “PSA level (comparison)” value on AR [2] (LN/AR cell line, 125 nmol to 1000 nmol) is “less than the PSA level upon exposure to NC42 and NC46”. The “pharmacokinetic behavior, residence time in blood” value in data set [3] is listed as “metabolize fast”. Moreover, in data set [4], the “activity remarks in the ranking” value is recorded as “particularly advantageous”.
As for `CNC(=O)c1ccc(N2C(=S)N(c3ccc(C#N)c(C(F)(F)F)c3)C(=O)C23CCC3)cc1` [NC77], the “luciferase activity (comparison)” value with LIAR cell line is recorded as “less than the luciferase activity upon exposure to NC98”. On AR [5] (125 nM to 1000 nM), the “luciferase activity in LNCaP-AR cells” value is reported as “acted to reduce luciferase activity”. For the same compound, the “rank by relative luciferase activity, most active to least active” value at AR [5] (500 nM) is “NC67>NC68>NC66>NC69>NC77=NC53>bicalutamide”.
Turning to `C[C@]1(O)CC[C@H]2[C@@H]3CCC4=CC(=O)CCC4=C3C=C[C@@]21C` [R1881, methyltrienolone, reference compound], on androgen receptor, the “androgen receptor nuclear translocation” value is listed as “nuclear translocation of the androgen receptor occurred”. For the same compound, on AR [2], the “induction of secreted PSA level” value is “strongly induced”.

As a reminder, the logP is the decadic logarithm of the partition coefficient of the neutral form, usually between octanol and water. Read a high logP as a more lipophilic compound.

(Values after patent US8648105B2, “Diarylthiohydantoin compounds” (The Regents of the University of California, priority 2006, dated 2014).)
